Experimental data reported in paper PMC9718777, “A growth selection system for the directed evolution of amine-forming or converting enzymes” (Nature Communications, 2022).

What was measured:
[1] = molecular target: T1, PcPAL(wt), phenylalanine ammonia lyase (Petroselinum crispum, UniProt P24481); test: specific activity of purified enzyme; assay type: biochemical
T1 construct: gene PAL1

[2] = molecular target: T2, AtTA(wt), (R)-selective amine transaminase (Aspergillus terreus, UniProt Q0C8G1); test: specific activity (benchmark substrate); assay type: biochemical
T2 construct: gene ATEG_10023
T2 sequence (Q0C8G1 1-325): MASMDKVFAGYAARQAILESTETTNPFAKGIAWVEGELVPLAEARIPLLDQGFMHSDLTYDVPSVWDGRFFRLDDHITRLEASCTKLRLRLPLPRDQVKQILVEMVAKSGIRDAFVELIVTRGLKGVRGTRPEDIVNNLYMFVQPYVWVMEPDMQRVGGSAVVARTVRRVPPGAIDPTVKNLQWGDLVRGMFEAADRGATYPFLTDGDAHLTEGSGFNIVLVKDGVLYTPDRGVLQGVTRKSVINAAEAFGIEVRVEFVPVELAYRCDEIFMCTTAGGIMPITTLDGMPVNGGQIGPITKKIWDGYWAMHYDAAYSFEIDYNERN

[3] = molecular target: T1, PcPAL(wt), phenylalanine ammonia lyase; test: specific activity; assay type: biochemical
[4] = molecular target: T2, AtTA(wt), (R)-selective amine transaminase; test: specific activity of purified enzyme with pyruvate; assay type: biochemical
[5] = molecular target: T3, AtTA(RHC), (R)-selective amine transaminase (Aspergillus terreus, UniProt Q0C8G1, H55R/F115H/E117C); test: specific activity of purified variant with pyruvate; asymmetric synthesis; assay type: biochemical
T3 construct: gene ATEG_10023

[6] = molecular target: T4, PcPAL(AI), phenylalanine ammonia lyase (Petroselinum crispum, UniProt P24481, L134A/L256I); test: specific activity of purified variant (amination of […]); assay type: biochemical
T4 construct: gene PAL1; purified variant of full-length PcPAL, recombinant in E. coli; MIO-dependent homotetramer

C[C@H](N)c1cccc2ccccc12 = test: purified protein; assay type: biochemical, Microbacterium oxydans; conditions: FAD active site
purified protein = substrate: C[C@H](N)c1cccc2ccccc12; test: purified protein; assay type: biochemical, Microbacterium oxydans; conditions: FAD active site; remark: listed apart in the source

## N[C@@H](Cc1cccc2ccccc12)C(=O)O [(S)-5, (S)-2-amino-3-(naphthalen-1-yl)propanoic acid]
[1]
  specific activity of purified enzyme: 0.0027 U/mg

## C[C@@H](N)c1ccccc1 [(R)-1-phenylethylamine]
[2]
  specific activity (benchmark substrate): 2.9 U/mg

## N[C@@H](Cc1ccccc1)C(=O)O [ʟ-phenylalanine]
[3]
  specific activity: 0.147 U/mg

## CC(C)(C)OC(=O)N1CCC[C@@H](N)C1 [(R)-1, (R)-1-Boc-3-aminopiperidine]
[4]
  specific activity of purified enzyme with pyruvate: 0.038 U/mg
[5]
  specific activity of purified variant with pyruvate; asymmetric synthesis: 4.2 U/mg

## O=C(O)/C=C/c1cccc2ccccc12 [compound 6, 6]
[6]
  specific activity of purified variant (amination of 6): 0.55 U/mg

## CHAO(MVLM), cyclohexylamine oxidase (Microbacterium oxydans; L182V/M209L/T181M/Y304M)
C[C@H](N)c1cccc2ccccc12
  Km: 2.2 mM

B1: CHAO(wt), cyclohexylamine oxidase (Microbacterium oxydans) (protein)
chain: THLNTYESVTPDPDVDVIIIGAGISGSAAAKALHDQGASVLVVEANDRIGGRTWTEQEGAPGGPIDYGGMFIGETHTHLIELGTSLGLEMTPSGKPGDDTYIVAGNVLRAPDDQLDPNLPFVPEFLSSLKALDELADSVGWDQPWASPNAAALDSKTVATWLAETIESEEVRRLHTVIVNTLLGADPYEVSLLYWAYYVSECEGIQSLMGTRDGAQWAWWFGGAAQVSWRIADAIGRDKFLLEWPVDRIEHDESGVTLFSGQRSLRARHIVIAMSPLAANQIRFEPALPTSRAQLQARAPMGRYYKVQARYPSSFWVEQGYSGALLDTEDVGVFLLDGTKPTDTLATLIGFIGGSNYDRWAAHTPQERERAFLDLLVKAFGPQAADPSYFHETDWTQQEWAKGGPVTYMPPGVLANFGAALRDPVGKVHFAGTEASFQWSGYMEGGVRAGQKAAAAIAEELERTANKGALV
Purified protein
  Km: 4.5 mM
